This assay addresses L-type calcium channel (Felis catus). Kind of assay: Inhibition of (-)-[3H]- D-888 binding to L-type calcium channels in kitten heart ventricle membranes.

By IC50 is commonly meant the concentration at which inhibition is half-maximal. As to `COc1ccc(CCN(C)C2CCCC(C(C#N)(c3ccc(OC)c(OC)c3)C(C)C)C2)cc1OC` (stereo unspecified) [(RSR) 2-(3,4-Dimethoxy-phenyl)-2-(3-{[2-(3,4-dimethoxy-phenyl)-ethyl]-methyl-amino}-cyclohexyl)-3-methyl-butyronitrile], the IC50 is 260 nM.

Source of the values: BindingDB's records for doi:10.1021/jm00056a003 (Universit&#224, 1993).
